Assays:
Assay type in all cases: binding
EDNRA = target: T1, EDNRA (Homo sapiens, UniProt P25101); assay: NanoBRET screen HiBiT-EDNRA in HEK293
T1 construct: purchased Promega (in-house HiBiT-GPCR construct library, NanoBRET)
T1 sequence (P25101 21-427): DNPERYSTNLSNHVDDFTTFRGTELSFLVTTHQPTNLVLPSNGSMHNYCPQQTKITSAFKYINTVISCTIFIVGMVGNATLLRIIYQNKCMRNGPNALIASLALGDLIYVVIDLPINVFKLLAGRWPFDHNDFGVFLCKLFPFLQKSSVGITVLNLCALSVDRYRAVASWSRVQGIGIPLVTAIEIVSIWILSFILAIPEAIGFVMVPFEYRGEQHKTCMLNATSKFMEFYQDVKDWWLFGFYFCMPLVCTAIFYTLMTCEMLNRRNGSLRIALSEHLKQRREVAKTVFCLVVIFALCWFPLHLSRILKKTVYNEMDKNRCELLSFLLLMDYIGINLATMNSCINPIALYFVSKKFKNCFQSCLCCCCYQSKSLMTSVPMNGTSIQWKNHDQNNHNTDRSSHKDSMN
Procedure: (§1) Each tracer candidate was screened across the entire library of HiBiT-GPCR constructs using NanoBRET as the detection modality. As depicted in Figure 4A, the specificity of interactions was evaluated through decrease in BRET due to competitive displacement of a bound tracer by excess parental compound. Each tracer was analyzed for binding to each HiBiT-GPCR fusion in the absence and in the presence of competing parental compound. Briefly, HEK293 cells were transfected with HiBiT-GPCR constructs diluted into promoterless DNA to reduce expression and maximize translocation to the cell surface. Each tracer candidate was then screened at concentrations of 1 μM and 0.1 μM across cells expressing these fusions. Cells were treated for 1.5 h with tracer either alone or in the presence of 20 μM competing parental compound (i.e., control). BRET was measured upon addition of purified LgBiT and subsequent complementation with HiBiT genetically fused to a GPCR. The specificity of interactions was assessed through a decrease in BRET signal due to competitive displacement of the bound tracer. To further gauge the robustness of these interactions, the fold response over the control (i.e., BRETtracer/BRETcontrol) was calculated. We chose a 1.5-fold response, which translates to ≥7-fold signal over noise as the minimal threshold required to score an interaction as positive. […]. Below we highlight the screening results obtained for our exemplary fluorescent tracers based on Clozapine, Amitriptyline and AZD1283.
(§2) HiBiT-GPCR DNA constructs were diluted in 10 mM Tris pH 8 to a final concentration of 0.01 μg/μL, arrayed in 96-well plates and stored at −20 °C. For transfection, HEK293 cells were suspended in Opti-MEM (without phenol red) supplemented with 2% fetal bovine serum (Seradigm) and 100 units/mL penicillin–streptomycin (Gibco) at a final concentration of 220,000 cells/mL and dispensed into white 96-well plates at 90 μL/well. Subsequent transfections and screens were carried using an Agilent Bravo Automated Liquid Handling Platform. First, the 96-well HiBiT DNA arrays were diluted 25-fold in Opti-MEM (without serum or phenol red) to a final concentration of 0.0004 μg/μL and 20 μL of the diluted DNAs were transferred into new 96-well plates. Next, promoterless carrier DNA (1 μg/μL) was diluted 25-fold (0.04 μg/μL) and then dispensed into the diluted arrays at 20 μL/well. Following brief mixing, Viafect transfection reagent (Promega) diluted 16-fold into Opti-MEM was dispensed into the plates at 40 μL/well. After mixing by pipetting, plates were incubated for 10 min on the pipetting station deck. The DNA-transfection reagent complexes were then added to plates containing cells. To facilitate the screen, 10 μL of DNA-transfection reagent complexes were added in duplicates to the top 4 and bottom 4 rows, resulting in two identical 48-well arrays per plate. Plates with transfected cells were incubated for 18–20 h at 37 °C/5% CO2. A screen of each tracer across the entire library using two different concentrations requires duplicate plates of transfected cells. Depending on the number of tracers being screened, transfections can be scaled up using the same ratios. The next day, for each tracer, four 20× screening solutions in tracer dilution buffer (Promega) were prepared: two duplicates at final concentration of 20 μM and two duplicates at a final concentration of 2 μM. A competing unmodified compound was added to one of each duplicate at a final concentration of 400 μM. The four resulting solutions were diluted 4-fold in Opti-MEM without serum or phenol red to generate 5× solutions (5 µM and 0.5 µM tracer +/− 100 μM competing compound). To screen the library, a BioTek MultiFlo FX liquid dispenser was used to dispense 22.5 µL of tracer solution to the top 4 rows and 22.5 µL tracer + competing compound solution to the 4 bottom rows. Plates were briefly mixed on an orbital shaker and incubated for 1.5 h at room temperature. […]

HTR1D = target: T2, HTR1D (Homo sapiens, UniProt P28221); assay: NanoBRET screen HiBiT-HTR1D in HEK293
T2 construct: purchased Promega (in-house HiBiT-GPCR construct library, NanoBRET)
Procedure: as §1, §2

F2R = target: T3, F2R (Homo sapiens, UniProt P25116); assay: NanoBRET screen HiBiT-F2R in HEK293
T3 construct: purchased Promega (in-house HiBiT-GPCR construct library, NanoBRET)
T3 sequence (P25116 22-425): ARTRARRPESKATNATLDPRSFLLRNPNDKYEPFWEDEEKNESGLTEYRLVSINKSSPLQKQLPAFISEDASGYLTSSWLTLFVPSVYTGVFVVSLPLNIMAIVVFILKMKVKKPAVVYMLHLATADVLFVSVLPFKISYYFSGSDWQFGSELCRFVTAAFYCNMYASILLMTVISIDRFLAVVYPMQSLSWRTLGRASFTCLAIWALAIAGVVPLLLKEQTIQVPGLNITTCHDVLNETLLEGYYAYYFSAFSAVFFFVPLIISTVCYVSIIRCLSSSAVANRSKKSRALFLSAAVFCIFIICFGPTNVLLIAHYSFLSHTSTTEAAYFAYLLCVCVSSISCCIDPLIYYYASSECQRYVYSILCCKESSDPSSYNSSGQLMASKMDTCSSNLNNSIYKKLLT
Procedure: as §1, §2

NPBWR1 = target: T4, NPBWR1 (Homo sapiens, UniProt P48145); assay: NanoBRET screen HiBiT-NPBWR1 in HEK293
T4 construct: purchased Promega (in-house HiBiT-GPCR construct library, NanoBRET)
T4 sequence (P48145 1-328): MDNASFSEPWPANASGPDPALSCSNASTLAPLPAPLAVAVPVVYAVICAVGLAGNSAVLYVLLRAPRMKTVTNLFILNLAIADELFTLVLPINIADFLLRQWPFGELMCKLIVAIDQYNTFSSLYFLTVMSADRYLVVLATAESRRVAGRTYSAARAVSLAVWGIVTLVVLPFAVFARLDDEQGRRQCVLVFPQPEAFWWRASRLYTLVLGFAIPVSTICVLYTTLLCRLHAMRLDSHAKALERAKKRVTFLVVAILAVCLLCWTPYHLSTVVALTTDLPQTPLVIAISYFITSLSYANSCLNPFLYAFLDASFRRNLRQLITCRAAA
Procedure: as §1, §2

SSTR2 = target: T5, SSTR2 (Homo sapiens, UniProt P30874); assay: NanoBRET screen HiBiT-SSTR2 in HEK293
T5 construct: purchased Promega (in-house HiBiT-GPCR construct library, NanoBRET)
Procedure: as §1, §2

T5 sequence (P30874 whole entry): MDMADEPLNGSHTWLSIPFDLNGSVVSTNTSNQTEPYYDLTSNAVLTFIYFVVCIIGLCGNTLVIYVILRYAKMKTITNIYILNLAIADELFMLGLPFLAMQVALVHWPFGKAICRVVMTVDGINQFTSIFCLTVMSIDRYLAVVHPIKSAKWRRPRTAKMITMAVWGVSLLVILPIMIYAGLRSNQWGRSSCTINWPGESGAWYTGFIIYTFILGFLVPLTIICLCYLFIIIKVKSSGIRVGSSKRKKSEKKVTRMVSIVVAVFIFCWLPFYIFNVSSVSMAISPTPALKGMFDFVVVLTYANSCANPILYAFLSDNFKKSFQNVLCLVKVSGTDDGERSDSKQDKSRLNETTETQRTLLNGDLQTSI
T2 sequence (P28221 whole entry): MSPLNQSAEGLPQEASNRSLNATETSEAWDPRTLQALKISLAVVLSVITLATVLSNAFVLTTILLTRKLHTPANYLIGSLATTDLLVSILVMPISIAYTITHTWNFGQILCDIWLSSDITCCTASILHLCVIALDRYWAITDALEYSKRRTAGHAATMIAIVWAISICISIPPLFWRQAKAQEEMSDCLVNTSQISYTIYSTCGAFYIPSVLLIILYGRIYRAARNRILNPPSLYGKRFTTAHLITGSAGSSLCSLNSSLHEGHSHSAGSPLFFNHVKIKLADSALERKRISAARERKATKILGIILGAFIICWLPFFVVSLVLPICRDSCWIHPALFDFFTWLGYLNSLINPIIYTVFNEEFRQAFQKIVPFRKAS

Row | NanoBRET Fold Response (EDNRA; 0.1μM tracer) | NanoBRET Fold Response (EDNRA; 1μM tracer) | NanoBRET Fold Response (HTR1D; 0.1μM tracer) | NanoBRET Fold Response (HTR1D; 1μM tracer) | NanoBRET Fold Response (F2R; 0.1μM tracer) | NanoBRET Fold Response (F2R; 1μM tracer) | NanoBRET Fold Response (NPBWR1; 0.1μM tracer) | NanoBRET Fold Response (NPBWR1; 1μM tracer) | NanoBRET Fold Response (SSTR2; 0.1μM tracer) | NanoBRET Fold Response (SSTR2; 1μM tracer) | SMILES | NanoBRET Fold Response (EDNRA; EDNRA, 0.1μM tracer) | NanoBRET Fold Response (EDNRA; EDNRA, 1μM tracer) | NanoBRET Fold Response (HTR1D; HTR1D, 0.1μM tracer) | NanoBRET Fold Response (HTR1D; HTR1D, 1μM tracer) | NanoBRET Fold Response (F2R; F2R, 0.1μM tracer) | NanoBRET Fold Response (F2R; F2R, 1μM tracer) | NanoBRET Fold Response (NPBWR1; NPBWR1, 0.1μM tracer) | NanoBRET Fold Response (NPBWR1; NPBWR1, 1μM tracer) | NanoBRET Fold Response (SSTR2; SSTR2, 0.1μM tracer) | NanoBRET Fold Response (SSTR2; SSTR2, 1μM tracer) | other results
1 | 0.91 | 0.91 | 0.68 | 0.68 | 0.98 | 0.96 | 0.88 | 0.84 | 1.07 | 0.88 | COc1ccc2c(n1)c(CCNC(C)=O)cn2CCNC(=O)CCc1ccc2n1[B-](F)(F)[N+]1=C(c3ccc[nH]3)C=CC1=C2 [Azamelatonin-1-NB590] |  |  |  |  |  |  |  |  |  |  | 
2 | 0.87 | 0.99 | 0.63 | 1.14 | 1.38 | 0.84 | 0.87 | 1.04 | 1.10 | 1.00 | COc1ccc2[nH]c(-c3ccc(CNC(=O)CCOCCOCCOCCOCCNC(=O)CCc4ccc5n4[B-](F)(F)[N+]4=C(c6ccc[nH]6)C=CC4=C5)cc3)c(CCNC(C)=O)c2n1 [AzomelatoninICO9-2-NB590] |  |  |  |  |  |  |  |  |  |  | 

The remaining lines, values behind:

Row | SMILES | NanoBRET Fold Response (EDNRA; 0.1μM tracer) | NanoBRET Fold Response (EDNRA; 1μM tracer) | NanoBRET Fold Response (HTR1D; 0.1μM tracer) | NanoBRET Fold Response (HTR1D; 1μM tracer) | NanoBRET Fold Response (F2R; 0.1μM tracer) | NanoBRET Fold Response (F2R; 1μM tracer) | NanoBRET Fold Response (NPBWR1; 0.1μM tracer) | NanoBRET Fold Response (NPBWR1; 1μM tracer) | NanoBRET Fold Response (SSTR2; 0.1μM tracer) | NanoBRET Fold Response (SSTR2; 1μM tracer) | NanoBRET Fold Response (EDNRA; EDNRA, 0.1μM tracer) | NanoBRET Fold Response (EDNRA; EDNRA, 1μM tracer) | NanoBRET Fold Response (HTR1D; HTR1D, 0.1μM tracer) | NanoBRET Fold Response (HTR1D; HTR1D, 1μM tracer) | NanoBRET Fold Response (F2R; F2R, 0.1μM tracer) | NanoBRET Fold Response (F2R; F2R, 1μM tracer) | NanoBRET Fold Response (NPBWR1; NPBWR1, 0.1μM tracer) | NanoBRET Fold Response (NPBWR1; NPBWR1, 1μM tracer) | NanoBRET Fold Response (SSTR2; SSTR2, 0.1μM tracer) | NanoBRET Fold Response (SSTR2; SSTR2, 1μM tracer) | other results
3 | CN(CCC=C1c2ccccc2CCc2ccccc21)C(=O)CCOCCOCCOCCOCCNC(=O)CCc1ccc2n1[B-](F)(F)[N+]1=C(c3ccc[nH]3)C=CC1=C2 [Amitriptyline-e-2-NB590] |  |  |  |  |  |  |  |  |  |  |  |  |  |  |  |  |  |  |  |  | NanoBRET Fold Response (EDNRA; tracer at 1μM): 1.05; NanoBRET Fold Response (HTR1D; tracer at 1μM): 0.96
4 | O=C(CCOCCOCCOCCOCCNC(=O)CCc1ccc2n1[B-](F)(F)[N+]1=C(c3ccc[nH]3)C=CC1=C2)NCCCN1CCN(C2=Nc3cc(Cl)ccc3Nc3ccccc32)CC1 [Clozapine-a-2-NB590] |  |  |  |  |  |  |  |  |  |  | 1.04 | 0.90 | 1.21 | 1.67 | 1.12 | 1.05 | 1.07 | 1.03 | 1.03 | 1.07 | 
5 | CN1CCN(C2=Nc3cc(Cl)ccc3Nc3ccc(CNC(=O)CCOCCOCCOCCOCCNC(=O)CCc4ccc5n4[B-](F)(F)[N+]4=C(c6ccc[nH]6)C=CC4=C5)cc32)CC1 [Clozapine-b-2-NB590] |  |  |  |  |  |  |  |  |  |  | 0.99 | 1.03 | 1.08 | 1.48 | 1.02 | 1.01 | 1.05 | 1.07 | 1.03 | 1.01 | 
